Reference: US6657052B1, “Biomolecular labeling” (University of Arkansas, priority 1997, dated 2003)

What was measured:
[1] = cited from earlier work; for pKa: H2O, 25° C., Lange's Handbook of Chemistry
[2] = Hydrolysis of kinetically formed trialkylphosphate in the presence of water (1H NMR); format: physicochemical
Excerpt: (§1) 3.3 Kinetic favorability of phosphotriester formation over hydrolysis in the presence of water. The reaction of quinone methide 7 and two equivalents of dibenzylphosphoric acid in the presence of excess water (˜200 equivalents for a homogeneous solution) afforded only trialkylphosphate 8 as the product in the equilibrium by 1H NMR analysis. […] Trialkylphosphate 8 is the kinetic product. A similar amount of 8 is produced in the presence of a much higher concentration of water (3,000 equivalents forming a bilayer) at ambient temperature after 30 minutes. […] Hydrolysis to benzyl alcohol appears to be the thermodynamic product^39. Similar results of quinone methides reacting with amino acid derivatives under aqueous conditions have been reported by other researchers^43.
as §1, with “(3)” for “3.3”, “^1H” for “1H”, “product. […]” for “product^39. Similar results of quinone methides reacting with amino acid derivatives under aqueous conditions have been reported by other researchers^43.”

## CNC(=N)N [methylguanidine]
[1]
  pKa: 14.1
  reported pKa values for various substituted guanidines: 14.1

## N=C(N)N [guanidine]
[1]
  pKa: 14.38

## CCN(C)CC [Et2MeN]
[1]
  pKa: 10.4

## Cc1cc(COP(=O)(OCc2ccccc2)OCc2ccccc2)cc(C)c1O [trialkylphosphate 8]
[2]; 3,000 equivalents water forming a bilayer, ambient temperature, after 18 hours
  hydrolysis to benzyl alcohol: complete conversion to benzyl alcohol
[2]; excess water (~200 equivalents, homogeneous solution), 18 hours at ambient temperature
  hydrolysis to benzyl alcohol: Minor amounts of the benzyl alcohol hydrolysis product

## Nc1cccc(O)c1 [3-aminophenol]
[1]
  pKa: 9.83

## N=C(N)Nc1ccccc1 [phenylguanidine]
[1]
  reported pKa values for various substituted guanidines: 10.8
